Laboratory results from patent publication US20110092440A1, “METHOD OF REGULATING CELL GROWTH USING A PROTEASOME INHIBITOR” (THE BOARD OF TRUSTEES OF THE UNIVERSITY OF ILLINOIS, priority 2008, published 2011).
Non-standard residues stand in square brackets, D forms with d. Residues, ends and D or L forms follow the SMILES beside them. *: point of attachment. Nva = CCC[C@H](N)C(=O)O; Cbz = O=C(OCc1ccccc1)*; OtBu = CC(C)(C)O*

Legend:
[1] = system: FoxM1 transcriptional activity; assay: FoxM1-dependent luciferase assay in U2OS-C3-Luc cells; assay type: cell-based, human; details: 1 μg/ml doxycycline, 24 hours, FIG. 2A
Experimental: The effects of proteasome inhibitors on FoxM1 transcriptional activity were tested by examining FoxM1-dependent luciferase activity in a luciferase assay. It was previously reported that thiazole antibiotics inhibited FoxM1-dependent transcriptional activity by measuring the reduction of luciferase activity in a U2OS-derived cell line stably expressing doxycycline-inducible FoxM1 and FoxM1-dependent luciferase (the U2OS-C3-Luc cell line). See U.S. Patent Application Publication No. 2008/0152618; Radhakrishnan et al. 2006; and Bhat et al., 2009. The same cell line was used in this experiment. U2OS-C3-Luc cells were treated with a combination of 1 μg/ml doxycycline and proteasome inhibitors at indicated concentrations for 24 hours, and the luciferase activity was measured. The luciferase activity was determined by using either the Luciferase Assay System (Promega, Madison, Wis.) or the Dual-Luciferase reporter assay system (Promega) according to the manufacturer's instructions.
The results shown in FIG. 2A (1) were normalized by the amount of proteins in the sample; and the results shown in FIG. 2A (2) were normalized using the Dual-luciferase reporter assay system (Promega).

FoxM1 protein = assay: Immunoblot analysis of FoxM1 protein levels in tumor cells; assay type: cell-based, human; details: U266, RPMI8226, HL-60 and U2OS cells, 24 hours, FIG. 2B
Experimental: The effects of proteasome inhibitors on FoxM1 protein expression were also examined. U266 and RPMI8226, both multiple myeloma cells, HL-60 leukemia cells and human U2OS osteosarcoma cells were treated with proteasome inhibitors MG115, MG132 and VELCADE® for 24 hours. Cell lysates were harvested and the FoxM1 protein levels were analyzed by immunoblot analysis. […] See also U.S. Patent Application Publication No. 2008/0152618.

[2] = system: U266 and RPMI8226 multiple myeloma, HL-60 leukemia and U2OS osteosarcoma cells; assay: Annexin V-PE/7AAD staining, FACS analysis of apoptosis; assay type: cell-based, human; details: U266, RPMI8226, HL-60 and U2OS cells, FIG. 3
Experimental: Proteasorne inhibitor-induced apoptosis was further quantified by using Annexin V-PE/7AAD staining. U266 and RPMI8226 multiple myeloma, HL-60 leukemia and U2OS osteosarcoma cells were cultured in the presence of proteasome inhibitors MG115, MG132 and VELCADE®. Following proteasome inhibitor treatment (or DMSO in the control), cells were stained with Annexin V-PE/7AAD (BD-Pharmingen, Franklin Lakes, N.J.) and then analyzed by Fluorescence-activated Cell Sorting (FACS). […] The concentrations of proteasome inhibitors used in the experiments shown in FIG. 3 were the same as those in FIG. 2. The percentages of apoptotic cells were shown in the parentheses in FIG. 3. The induction of apoptosis correlated with the suppression of FoxM1 (see FIG. 3 and FIG. 2B).

20S proteasome = target: T1, 20S proteasome (Homo sapiens, UniProt P28074); assay: 20S Proteasome Activity Assay Kit (LLVY-AMC cleavage); assay type: biochemical; details: 25 μM, 15 minutes pre-incubation, 1 hour at 37° C., FIG. 1C
T1 construct: Millipore
Experimental: The effects of Siomycin A and thiostrepton on the 20S proteasome were compared with proteasome inhibitors MG132 and lactacystin using the Proteasome Activity Assay Kit following the manufacturer's instructions (Millipore). […] Proteasome samples were prepared according to the manufacturer's instructions. […] Samples were incubated for 1 hour at 37° C. and the fluorescence derived from the cleaved AMC was detected and quantified using a 380/460 nm filter in a fluorometer (Spectra Max GeminiXS, Molecular Devices, Sunnyvale, Calif.).

[3] = system: Hdm2, p53, Mcl-1 and p21 protein levels in U2OS cells; assay: Immunoblot analysis of Hdm2, p53, Mcl-1 and p21 protein levels in U2OS cells; assay type: cell-based, human; details: FIG. 1A
Text: The effects of Siomycin A on the protein levels of these genes in the cells were compared with those of a proteasome inhibitor MG132.

[4] = system: NF-κB transcriptional activity; assay: TNF-α-induced NF-κB-dependent luciferase assay in 293T-NF-κB-Luc cells; assay type: cell-based; details: 10 ng/mL TNF-α 24 hours, then compound 10 hours, FIG. 1B
Experimental: Proteasome inhibitors were known to inhibit the activity of NF-κB via the stabilization of its negative regulator IκB-α (Nakanishi et al., 2005, Nat Rev Cancer 5:297-309; Nencioni et al., 2007). The effects of Siomycin A and thiostrepton on NF-κB-dependent transcriptional activity were tested. 293T cells stably transfected with an NF-κB-Luc reporter construct (293T-NF-κB-Luc) were induced with 10 ng/mL TNF-αfor 24 hours. The next day, the cells were treated with Siomycin A or thiostrepton for an additional 10 hours, and followed by luciferase assay. The luciferase activity was determined by using the Luciferase Assay System (Promega, Madison, Wis.) according to the manufacturer's instructions. The data were normalized based on the amount of proteins in the samples.

Mia Paca cells = assay: Apoptosis induction by Siomycin A alone, Mia Paca; assay type: cell-based, human; details: data not shown
BxPC3 cells = assay: Apoptosis induction by Siomycin A alone, BxPC3; assay type: cell-based, human; details: data not shown
MDAMB231 cells = assay: Apoptosis induction by Siomycin A alone, MDAMB231; assay type: cell-based, human; details: data not shown
HPAC cells = assay: Apoptosis induction by Siomycin A alone, HPAC; assay type: cell-based, human; details: data not shown
[5] = system: FoxM1 transcriptional activity; details: previously reported (US 2008/0152618; Radhakrishnan et al., 2006); cited from earlier work
U2OS-C3 cells = assay: Active caspase 3 immunoblot in U2OS-C3 cells with doxycycline-induced FoxM1 over-expression; assay type: cell-based, human; details: compound 24 hours, FIG. 4
Experimental: Over-expression of FoxM1 was often observed in a variety of tumors. See Pilarsky et al., 2004, Neoplasia 6(6):744-750; Chan et al., 2008, J Pathol 215(3):245-252. A U2OS-derived cell line stably expressing doxycycline-inducible FoxM1-GFP fusion protein (U2OS-C3) was used to examine the role of FoxM1 in apoptosis induced by proteasome inhibitors. Exogenous FoxM1 expression was induced by doxycycline and the following day the cells were treated with different concentrations of VELCADE® for 24 hours.

[6] = system: Prostate cancer DU145 and PC3 cells; assay type: cell-based; details: data not shown
[7] = toxicity studies, Aghajanian et al., 2002; cited from earlier work

| SMILES | FoxM1 transcriptional activity (luciferase) [1] | levels of FoxM1 protein (FoxM1 protein) | induction of apoptosis (Annexin V-PE/7AAD) [2] | proteolytic activity of the 20S proteasome (free AMC) (20S proteasome) | further results |
| --- | --- | --- | --- | --- | --- |
| CCC[C@@H](C=O)NC(=O)[C@H](CC(C)C)NC(=O)[C@H](CC(C)C)NC(=O)OCc1ccccc1 [MG115, Z-L-leucyl-L-leucyl-L-norvalinal] (Cbz-Leu-Leu-[Nva]-aldehyde) | inhibited FoxM1 transcriptional activity | the levels of FoxM1 protein decreased | induced apoptosis in the cells |  |  |
| CC(C)C[C@@H](C=O)NC(=O)[C@H](CC(C)C)NC(=O)[C@H](CC(C)C)NC(=O)OCc1ccccc1 [MG132, Z-L-leucyl-L-leucyl-L-leucinal] (Cbz-Leu-Leu-Leu-aldehyde) | inhibited FoxM1 transcriptional activity | the levels of FoxM1 protein decreased | induced apoptosis in the cells | the decrease was not as prominent as that by MG132 or lactacystin |  |
| CC[C@H](C)[C@H](NC(=O)OCc1ccccc1)C(=O)N[C@@H](CCC(=O)OC(C)(C)C)C(=O)N[C@@H](C)C(=O)N[C@H](C=O)CC(C)C [PSI, N-benzyloxycarbony-Ile-Glu-(O-t-butyl)-Ala-leucinal] (Cbz-IE(OtBu)AL-aldehyde) | inhibited FoxM1 transcriptional activity |  |  |  |  |
| C=C(NC(=O)C(=C)NC(=O)c1csc(C2=N[C@@H]3c4csc(n4)[C@H]4NC(=O)c5csc(n5)[C@H]([C@](C)(O)[C@@H](C)O)NC(=O)[C@H]5CSC(=N5)/C(=C/C)NC(=O)[C@H]([C@@H](C)O)NC(=O)c5csc(n5)[C@]3(CC2)NC(=O)[C@H](C)NC(=O)C(=C)NC(=O)C(=C)NC(=O)[C@H](C(C)C)N[C@@H]2C=Cc3c([C@H](C)O)cc(nc3[C@H]2O)C(=O)O[C@@H]4C)n1)C(N)=O [Siomycin A] |  |  |  | decreased proteolytic activity of the 20S proteasome | cellular protein levels of Hdm2, p53, Mcl-1 and p21 [3]: increased the cellular protein levels of Hdm2, p53, Mcl-1 and p21; TNF-α-induced NF-κB transcriptional activity [4]: suppressed TNF-α-induced NF-κB transcriptional activity; concentration required to induce apoptosis when used alone (Mia Paca cells): 5 µM; concentration required to induce apoptosis when used alone (BxPC3 cells): 5 µM; concentration required to induce apoptosis when used alone (MDAMB231 cells): 5 µM; concentration required to induce apoptosis when used alone (HPAC cells): 10 to 15 µM; FoxM1 transcriptional activity and FoxM1 protein expression, reported previously [5]: inhibited FoxM1 transcriptional activity as well as FoxM1 protein expression in cells |
| CC(C)C[C@H](NC(=O)[C@H](Cc1ccccc1)NC(=O)c1cnccn1)B(O)O [VELCADE®, pyrazylcarbony-phenylalanyl-leucyl-boronate] | inhibited FoxM1 transcriptional activity | the levels of FoxM1 protein decreased | induced apoptosis in the cells |  | active caspase 3 expression in cells over-expressing FoxM1 (U2OS-C3 cells): VELCADE®-induced active caspase 3 expression was reduced in cells that over-expressed FoxM1; minimal concentration required for induction of caspase 3 expression, compound alone [6]: 50 nM; therapeutic index [7]: very narrow therapeutic index |
| COc1cccc2c1C(=O)c1c(O)c3c(c(O)c1C2=O)C[C@@](O)(C(=O)CO)C[C@@H]3O[C@H]1C[C@H](N)[C@H](O)[C@H](C)O1 [doxorubicin] |  |  |  |  | active caspase 3 expression in cells over-expressing FoxM1 (U2OS-C3 cells): over-expression of FoxM1 did not protect against doxorubicin-induced caspase 3 expression |
| CC(=O)N[C@@H](CSC(=O)[C@]1([C@@H](O)C(C)C)NC(=O)[C@H](C)[C@@H]1O)C(=O)O [lactacystin] |  |  |  | the decrease was not as prominent as that by MG132 or lactacystin |  |
| C=C(NC(=O)C(=C)NC(=O)c1csc(C2=N[C@@H]3c4csc(n4)[C@H]4NC(=O)c5csc(n5)[C@H]([C@](C)(O)[C@@H](C)O)NC(=O)[C@H]5CSC(=N5)/C(=C/C)NC(=O)[C@H]([C@@H](C)O)NC(=O)c5csc(n5)[C@]3(CC2)NC(=O)[C@H](C)NC(=O)C(=C)NC(=O)[C@H](C)NC(=O)[C@H]([C@@H](C)CC)N[C@@H]2C=Cc3c([C@H](C)O)cc(nc3[C@H]2O)C(=O)O[C@@H]4C)n1)C(N)=O [thiostrepton] |  |  |  | decreased proteolytic activity of the 20S proteasome | TNF-α-induced NF-κB transcriptional activity [4]: suppressed TNF-α-induced NF-κB transcriptional activity; minimal concentration required for induction of caspase 3 expression, compound alone [6]: 3000 nM; FoxM1 transcriptional activity and FoxM1 protein expression, reported previously [5]: inhibited FoxM1 transcriptional activity as well as FoxM1 protein expression in cells |
